Here are results for 31 compounds from US20080051419A1, “AMINE DERIVATIVES USEFUL AS ANTICANCER AGENTS” (PFIZER INC., priority 2006, published 2008).

For the test, the target named is T1, Akt1 (Homo sapiens, UniProt P31749, S473D).
T1 construct: The version of Akt used in these studies lacks the pleckstrin homology (PH) domain
Description: Akt1 kinase assay, fluorescence polarization (IMAP). In kind it is biochemical. The method, then:
The Akt1 kinase assay is based on the measurement of fluorescence polarization using IMAP technology (Molecular Devices Corporation #R8062). Two microliters of inhibitor compounds diluted to a concentration of 10 millimolar are added to column 2 of a polypropylene 96-well plate containing 98 microliters of 100% DMSO; the wells in columns 3-12 contain 60 microliters of 100% DMSO. The various test compounds are serially diluted 1:3 across the plate by pipetting 30 microliters of compounds into wells containing 60 microliters of 100% DMSO. Column 12 receives DMSO only and is used as a negative control for inhibition. The components of the wells are mixed and 15 microliters of each well are transferred to another 96-well plate already containing 60 microliters of reaction buffer (RB: 10 mM Tris-HCl, pH 7.5, 10 mM MgCl2, 0.1 mM EGTA, 0.01% Triton-X100 (Sigma #X-100), freshly added 1 mM DTT). After mixing, the […] reactions are assembled. First, five microliters of the above compound/reaction buffer mixture is transferred to the bottom of a 96-well black polystyrene reaction plate (Costar, #3694). Next, ten microliters of a solution containing 4 micromolar ATP and 40 nanomolar fluorescent-labeled Crosstide (Tamara-labeled […] peptide) are added. Then, 5 microliters (1.5 nanograms) of Akt protein in RB are added. The version of Akt used in these studies lacks the pleckstrin homology (PH) domain, and contains an aspartic acid residue in place of a serine residue in position 473 within the Akt1 hydrophobic motif. The Akt1 protein contains a polyhistidine tag at the amino terminus and is prephosphorylated on threonine at position 308 in order to activate latent kinase activity. Once the reaction components and inhibitors are assembled, the plates are gently tapped, covered with foil, and then incubated at ambient temperature for 30 minutes. IMAP beads (Molecular Devices) are then added (60 microliters of a 1:400 dilution of beads in RB). Plates are read on a Victor Plate Reader with the following settings: CW lamp filter: 544 nm, emission filter: 615 nm. Control values from wells lacking Akt protein are subtracted from the gross readings, and IC50 values are calculated using XLDA.

Where [1] appears, read: Table 1, concentration bins, read-out: Concentration Range at which exemplary compounds of formula I inhibit Akt kinase activity.
The mark [2] stands for this setting: Table 3, read-out: Avg Akt kinase, μM (50% inhibition).
[3] abbreviates: average Akt kinase activity (IC50), read-out: Avg Akt kinase, μM (50% inhibition).

Like-named read-outs stand apart in the source and are kept apart here.

T1 sequence (P31749 118-480 S473D limits assumed, species assumed): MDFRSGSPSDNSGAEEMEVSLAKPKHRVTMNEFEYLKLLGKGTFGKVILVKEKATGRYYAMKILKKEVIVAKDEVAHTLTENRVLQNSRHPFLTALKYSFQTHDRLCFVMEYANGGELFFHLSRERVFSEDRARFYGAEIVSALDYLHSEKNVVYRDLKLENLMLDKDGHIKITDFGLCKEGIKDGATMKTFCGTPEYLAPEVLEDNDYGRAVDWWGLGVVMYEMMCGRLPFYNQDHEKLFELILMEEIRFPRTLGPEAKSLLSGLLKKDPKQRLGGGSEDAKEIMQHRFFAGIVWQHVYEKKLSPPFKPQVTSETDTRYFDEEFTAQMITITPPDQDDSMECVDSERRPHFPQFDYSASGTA

For `Cc1c[nH]c2ncnc(N3CCC(N)(CNc4ccc(Cl)cc4F)C3)c12` (stereo not drawn) [Example 31, 3-{[(4-chloro-2-fluorophenyl)amino]methyl}-1-(5-methyl-7H-pyrrolo[2,3-d]pyrimidin-4-yl)pyrrolidin-3-amine], the IC50 was 0.00251 to 0.01 µM under setting [1] and 0.00514 µM under setting [2].
For `Cc1c[nH]c2ncnc(N3CC[C@](N)(CNC(=O)c4c(F)ccc(F)c4F)C3)c12` [Example 120, N-{[(3S)-3-amino-1-(5-methyl-7H-pyrrolo[2,3-d]pyrimidin-4-yl)pyrrolidin-3-yl]methyl}-2,3,6-trifluorobenzamide], the IC50 under setting [1] was 0.0101 to 0.1 µM and the IC50 under setting [3] stood at 0.0255 µM.
In the same order, the values of `N[C@]1(CNC(=O)c2ccc(F)cc2F)CCN(c2ncnc3[nH]cc(Cl)c23)C1` [Example 82, N-{[(3S)-3-amino-1-(5-chloro-7H-pyrrolo[2,3-d]pyrimidin-4-yl)pyrrolidin-3-yl]methyl}-2,4-difluorobenzamide] are 0.00025 to 0.0025 µM and 0.00163 µM.
On to `Cc1c[nH]c2ncnc(N3CCC(N)(CNc4ccccc4N4CCOCC4)C3)c12` (stereo not drawn) [Example 29, 1-(5-methyl-7H-pyrrolo[2,3-d]pyrimidin-4-yl)-3-{[(2-morpholin-4-ylphenyl)amino]methyl}pyrrolidin-3-amine], for which the IC50 under setting [1] was 0.0101 to 0.1 µM and the IC50 under setting [2] amounted to 0.0101 µM.
`Cc1c[nH]c2ncnc(N3CCC(N)(CNc4nccc(C(F)(F)F)n4)C3)c12` (stereo not drawn) [Example 57, N-{[3-amino-1-(5-methyl-7H-pyrrolo[2,3-d]pyrimidin-4-yl)pyrrolidin-3-yl]methyl}-4-(trifluoromethyl)pyrimidin-2-amine]: the IC50 runs as follows: under setting [1], 0.0101 to 0.1 µM; under setting [2], 0.0287 µM.
With `Cc1c[nH]c2ncnc(N3CCC(N)(CN(C)C(=O)c4ccc(Cl)cc4)C3)c12` (stereo not drawn) [Example 196, N-((3-amino-1-(5-methyl-7H-pyrrolo[2,3-d]pyrimidin-4-yl)pyrrolidin-3-yl)methyl)-4-chloro-N-methylbenzamide], the IC50 is 0.101 to 10 µM under setting [1] and 0.123 µM (read-out: Avg Akt kinase, μM (50% inhibition)).
As to `CCc1c[nH]c2ncnc(N3CC[C@](N)(CNC(=O)c4cccc(Cl)c4)C3)c12` [Example 133], the IC50 is 0.00251 to 0.01 µM under setting [1] and 0.00447 µM under setting [3].
In the same order, the values of `Cc1cc(C(=O)NC[C@]2(N)CCN(c3ncnc4[nH]cc(Cl)c34)C2)no1` [Example 79] are 0.00251 to 0.01 µM and 0.00377 µM.
As to `Cc1c[nH]c2ncnc(N3CCC(N)(CN4CCCc5ccccc54)C3)c12` (stereo not drawn) [Example 49, 3-(3,4-dihydroquinolin-1(2H)-ylmethyl)-1-(5-methyl-7H-pyrrolo[2,3-d]pyrimidin-4-yl)pyrrolidin-3-amine], the IC50 was 0.101 to 10 µM under setting [1] and 0.131 µM under setting [2].
Regarding `N[C@]1(CNC(=O)c2cccc(F)c2Cl)CCN(c2ncnc3[nH]cc(Cl)c23)C1` [Example 124, N-{[(3S)-3-amino-1-(5-chloro-7H-pyrrolo[2,3-d]pyrimidin-4-yl)pyrrolidin-3-yl]methyl}-2-chloro-3-fluorobenzamide], the IC50 under setting [1] was in the range of 0.00251 to 0.01 µM and the IC50 under setting [3] was determined as 0.00691 µM.
For `N#Cc1n[nH]c2ncnc(N3CCC(N)(CNc4cccc(Cl)c4)C3)c12` (stereo not drawn) [Example 8, 4-{3-Amino-3-[(3-chloro-phenylamino)-methyl]-pyrrolidin-1-yl}-1H-pyrazolo[3,4-d]pyrimidine-3-carbonitrile], the IC50 reads like this: under setting [1], 0.101 to 10 µM; under setting [2], 0.249 µM.
For `Cc1cccc(C(=O)NC[C@@]2(N)CCN(c3ncnc4[nH]cc(Cl)c34)C2)c1Cl` [Example 119], the IC50 is 0.00251 to 0.01 µM under setting [1] and 0.00785 µM under setting [3].
Taken in the same sequence, the figures for `CCc1c[nH]c2ncnc(N3CC[C@](N)(CNC(=O)c4ccc(Cl)cc4)C3)c12` [Example 88] were 0.00025 to 0.0025 µM and 0.0018 µM.
In the case of `Cc1cccc(C(=O)NC[C@@]2(N)CCN(c3ncnc4[nH]cc(C)c34)C2)c1Cl` [Example 117], the IC50 runs as follows: under setting [1], 0.0101 to 0.1 µM; under setting [3], 0.0135 µM.
Taken in the same sequence, the figures for `Cc1c[nH]c2ncnc(N3CC[C@](N)(CNC(=O)c4ccccc4Cl)C3)c12` [Example 71, N—(((S)-3-amino-1-(5-methyl-7H-pyrrolo[2,3-d]pyrimidin-4-yl)pyrrolidin-3-yl)methyl)-2-chlorobenzamide] were 0.00251 to 0.01 µM and 0.00797 µM.
Taken in the same sequence, the figures for `N[C@]1(CNC(=O)c2ccc(Cl)cc2F)CCN(c2ncnc3[nH]cc(Cl)c23)C1` [Example 84, N-{[(3S)-3-amino-1-(5-chloro-7H-pyrrolo[2,3-d]pyrimidin-4-yl)pyrrolidin-3-yl]methyl}-4-chloro-2-fluorobenzamide] were 0.0101 to 0.1 µM and 0.0111 µM.
For the compound `N#Cc1c[nH]c2ncnc(N3CC[C@](N)(CNC(=O)c4ccc(F)cc4F)C3)c12` [Example 96, N-{[(3S)-3-amino-1-(5-cyano-7H-pyrrolo[2,3-d]pyrimidin-4-yl)pyrrolidin-3-yl]methyl}-2,4-difluorobenzamide], the IC50 under setting [1] is 0.00251 to 0.01 µM and the IC50 under setting [3] was determined as 0.00771 µM.
In the case of “N-{[3-amino-1-(5-methyl-7H-pyrrolo[2,3-d]pyrimidin-4-yl)pyrrolidin-3-yl]methyl}pyrimidin-2-amine [Example 58]”, under setting [2], the IC50 was found to be 0.123 µM.
Consider `Cc1c[nH]c2ncnc(N3CCC(N)(CNc4cccc(C(F)(F)F)c4F)C3)c12` (stereo not drawn) [Example 3], for which the IC50 by setting is: under setting [1], 0.00025 to 0.0025 µM; under setting [2], 0.0012 µM.
For the compound `Cc1c[nH]c2ncnc(N3CC[C@](N)(CNC(=O)c4ccc(F)c(F)c4)C3)c12` [Example 114], the IC50 is, setting by setting: under setting [1], 0.0101 to 0.1 µM; under setting [3], 0.0176 µM.
In the same order, the values of `Cc1cccc(F)c1C(=O)NC[C@@]1(N)CCN(c2ncnc3[nH]cc(Cl)c23)C1` [Example 122] are 0.0101 to 0.1 µM and 0.029 µM.
Consider `Cc1c[nH]c2ncnc(N3CCC(N)(CNc4ccc(Cl)nn4)C3)c12` (stereo not drawn) [Example 52, N-{[3-amino-1-(5-methyl-7H-pyrrolo[2,3-d]pyrimidin-4-yl)pyrrolidin-3-yl]methyl}-6-chloropyridazin-3-amine], for which the IC50 runs as follows: under setting [1], 0.0101 to 0.1 µM; under setting [2], 0.082 µM.
In the same order, the values of `Cc1ccn2ncnc(N3CCC(N)(CNc4cccc(Cl)c4Cl)C3)c12` (stereo not drawn) [Example 10, 3-{[(2,3-dichlorophenyl)amino]methyl}-1-(5-methylpyrrolo[2,1-f][1,2,4]triazin-4-yl)pyrrolidin-3-amine] are 0.00251 to 0.01 µM and 0.003 µM.
On to `Cc1c[nH]c2ncnc(N3CC[C@](N)(CNC(=O)c4c(F)cccc4Cl)C3)c12` [Example 116], for which the IC50 runs as follows: under setting [1], 0.0101 to 0.1 µM; under setting [3], 0.0681 µM.
Taken in the same sequence, the figures for `Cc1c[nH]c2ncnc(N3CCC(N)(CNC(=O)c4ccccc4)C3)c12` (stereo not drawn) [Example 69, N-((3-amino-1-(5-methyl-7H-pyrrolo[2,3-d]pyrimidin-4-yl)pyrrolidin-3-yl)methyl)benzamide] were 0.0101 to 0.1 µM and 0.0623 µM.
In the case of `Cc1c[nH]c2ncnc(N3CC[C@](N)(CNC(=O)c4cccc(F)c4F)C3)c12` [Example 87], the IC50 was 0.00251 to 0.01 µM under setting [1] and 0.00758 µM under setting [3].
For the compound `Cc1c[nH]c2ncnc(N3CCC(N)(CNc4ccc(S(=O)(=O)NCc5ccccc5)cc4)C3)c12` (stereo not drawn) [Example 12, 4-({[3-amino-1-(5-methyl-7H-pyrrolo[2,3-d]pyrimidin-4-yl)pyrrolidin-3-yl]methyl}amino)-N-benzylbenzenesulfonamide], the IC50 under setting [1] lay within 0.0101 to 0.1 µM and the IC50 under setting [2] turned out to be 0.0105 µM.
With `Cc1c[nH]c2ncnc(N3CC[C@@](N)(COc4cccc(C(F)(F)F)c4)C3)c12` [Example 62], the IC50 (Table 4, read-out: Avg Akt kinase, μM (50% inhibition)) was 2.69 µM.
As to `N#Cc1c[nH]c2ncnc(N3CCC(N)(CNc4ccc(Cl)cc4)C3)c12` (stereo not drawn) [Example 4, 4-{3-amino-3-[(4-chloro-phenylamino)-methyl]-pyrrolidin-1-yl}-7H-pyrrolo[2,3-d]pyrimidine-5-carbonitrile], the IC50 is, setting by setting: under setting [1], 0.0101 to 0.1 µM; under setting [2], 0.041 µM.
In the same order, the values of `Cc1c[nH]c2ncnc(N3CCC(N)(CNc4cccc(-c5cnco5)c4)C3)c12` (stereo not drawn) [Example 44, 1-(5-methyl-7H-pyrrolo[2,3-d]pyrimidin-4-yl)-3-({[3-(1,3-oxazol-5-yl)phenyl]amino}methyl)pyrrolidin-3-amine] are 0.101 to 10 µM and 0.837 µM.
With `CCc1c[nH]c2ncnc(N3CC[C@](N)(CNC(=O)c4ccc(F)cc4F)C3)c12` [Example 73, N-{[(3S)-3-amino-1-(5-ethyl-7H-pyrrolo[2,3-d]pyrimidin-4-yl)pyrrolidin-3-yl]methyl}-2,4-difluorobenzamide], the IC50 was 0.00025 to 0.0025 µM under setting [1] and 0.000269 µM under setting [3].
